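Exposure lasted 48 hours, with cells grown in 96-well plates and compounds tested at five concentrations. GI50 marks 50% less growth. The concentration for full growth arrest is given as TGI.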
Key:
Experiment in all cases: DTP human tumour cell line panel, 48 h
786-0 renal = tested on: 786-0 renal
ACHN renal = tested on: ACHN renal
HCT-15 colon = tested on: HCT-15 colon
HL-60(TB) leukemia = tested on: HL-60(TB) leukemia
NCI-H522 lung = tested on: NCI-H522 lung
OVCAR-3 ovarian = tested on: OVCAR-3 ovarian
OVCAR-4 ovarian = tested on: OVCAR-4 ovarian
SW-620 colon = tested on: SW-620 colon
UACC-62 melanoma = tested on: UACC-62 melanoma
LOX IMVI melanoma = tested on: LOX IMVI melanoma

SMILES | GI50 (786-0 renal) [µM] | TGI (786-0 renal) [µM] | GI50 (ACHN renal) [µM] | TGI (ACHN renal) [µM] | GI50 (HCT-15 colon) [µM] | TGI (HCT-15 colon) [µM] | GI50 (HL-60(TB) leukemia) [µM] | TGI (HL-60(TB) leukemia) [µM] | GI50 (NCI-H522 lung) [µM] | TGI (NCI-H522 lung) [µM] | GI50 (OVCAR-3 ovarian) [µM] | TGI (OVCAR-3 ovarian) [µM] | GI50 (OVCAR-4 ovarian) [µM] | TGI (OVCAR-4 ovarian) [µM] | GI50 (SW-620 colon) [µM] | TGI (SW-620 colon) [µM] | GI50 (UACC-62 melanoma) [µM] | TGI (UACC-62 melanoma) [µM] | TGI (LOX IMVI melanoma) [µM] | GI50 (LOX IMVI melanoma) [µM]
COc1cc(-c2cc(-c3ccc(Nc4ccnc5cc(Cl)ccc45)cc3)nc(N3CCOCC3)n2)cc(OC)c1OC | 2.08 | 4.81 | 2.34 | 5.02 | 1.52 | 3.58 | 5.99 | 82.1 | 2.03 | 5.03 | 1.89 | 3.67 | 1.89 | 4.3 | 1.28 | 3.45 | 1.98 | 3.83 | – | –
COc1cccc(CSCC(=O)O)c1 | – | > 100 | – | > 100 | – | > 100 | – | – | – | > 100 | – | > 100 | – | > 100 | – | > 100 | – | > 100 | > 100 | –
O=C(O)C1CCCCC1c1c2ccc(=O)c(O)c-2oc2c(O)c(O)ccc12 (stereo not drawn) | – | 46.2 | – | 60.1 | – | – | – | 65.2 | – | 67 | – | > 100 | – | 64 | – | 47.7 | – | > 100 | 32.6 | –
O=C(CCC(=O)Nc1ccc(Cl)c(Cl)c1)CC(=O)c1ccc(F)cc1 | – | > 100 | – | > 100 | – | – | – | > 100 | – | – | – | > 100 | – | > 100 | – | > 100 | – | > 100 | > 100 | –
O=C(O)C1CC2(C1)CC(C(=O)O)C2 (stereo not drawn) | – | > 100 | – | > 100 | – | > 100 | – | – | – | > 100 | – | > 100 | – | > 100 | – | > 100 | – | > 100 | > 100 | –
O=C1NC(=O)C(=Nc2cccc3c(=O)[nH][nH]c(=O)c23)C(c2nc3ccccc3s2)C1=O (stereo not drawn) | – | > 100 | – | > 100 | – | > 100 | – | > 100 | – | > 100 | – | > 100 | – | > 100 | – | > 100 | – | > 100 | – | –
COC(=O)/C(=N/Nc1cccc(Cl)c1)C(C(=O)C(=O)Nc1cccc(Cl)c1C)c1nc2ccccc2nc1C (stereo not drawn) | – | > 100 | – | > 100 | – | – | – | > 100 | – | > 100 | – | > 100 | – | > 100 | – | > 100 | – | > 100 | – | –
S=C(Nc1ccc(N=Nc2ccccc2)cc1)SCc1ccccc1 | – | 38 | – | 31.3 | – | 28.3 | – | – | – | 36.2 | – | 29.4 | – | 33.2 | – | 44.5 | – | 31.8 | 38.5 | –
Cn1c(=O)c(NC(=O)C(Cl)(Cl)Cl)nc2ccccc21 | – | > 100 | – | – | – | > 100 | – | > 100 | – | > 100 | – | > 100 | – | – | – | > 100 | – | > 100 | > 100 | –
CC(=O)c1c(CN(C)c2ccccc2)n([O-])c2ccccc2[n+]1=O | 55 | > 100 | 32.9 | > 100 | 31.3 | > 100 | – | – | 25.6 | 69.9 | – | – | 29 | > 100 | 21 | > 100 | 23.9 | 83.8 | > 100 | 38.2
COc1ccc2c(c1)CC[C@@H]1[C@@H]2CC[C@]2(C)[C@@H](NC(=O)/C=C/c3ccc(O)c(O)c3)CC[C@@H]12 | 2.34 | 5.48 | 3.89 | 14.8 | 3.2 | 15.4 | – | – | 1.68 | 5.73 | 10.6 | 22.7 | 11.9 | 74.7 | 5.55 | 25 | 2.12 | 6.19 | 13.7 | 3.15
NC1=NC(c2ccc(Cl)cc2)N(c2ccc(S(N)(=O)=O)cc2)C(N)=N1 (stereo not drawn) | – | > 100 | – | > 100 | – | > 100 | – | – | – | > 100 | – | > 100 | – | > 100 | – | > 100 | – | > 100 | > 100 | –
Oc1ccc(O)c(-c2cc(-c3ccc(Cl)cc3)nn2-c2ccccc2)c1 | 2.21 | 5.4 | 18.6 | 32.6 | 12.5 | 25.5 | 5.71 | 64.8 | 2.4 | 5.44 | 14.5 | 30.7 | – | – | 3.81 | 18.4 | 2.63 | 7.88 | – | –
CCn1c(SC(C)C(=O)c2c(C)n(C)n(-c3ccccc3)c2=O)nc2ccccc2c1=O (stereo not drawn) | – | > 100 | – | > 100 | – | > 100 | – | > 100 | – | > 100 | – | > 100 | – | > 100 | – | – | – | > 100 | > 100 | –
Cc1noc2c1C(=O)CCC2 | – | > 100 | – | > 100 | – | – | – | > 100 | – | > 100 | – | > 100 | – | > 100 | – | > 100 | – | > 100 | > 100 | –
S=c1nc(COc2ccc(Cl)cc2Cl)[nH][nH]1 | – | > 100 | – | > 100 | – | > 100 | – | 88.8 | – | – | – | > 100 | – | > 100 | – | > 100 | – | > 100 | > 100 | –
S=c1[nH]nc(Cc2ccccc2)c(=S)[nH]1 | – | > 100 | – | – | – | > 100 | – | > 100 | – | > 100 | – | > 100 | – | > 100 | – | > 100 | – | > 50.1 | 99.3 | –
Cc1nc2c(o1)C(=Nc1ccccc1)c1ccccc1C2=O | – | 28.5 | – | 19.6 | – | 22.6 | – | 66.1 | – | 15.8 | – | 6.21 | – | – | – | 23.2 | – | 11 | 12.1 | –
Cc1ccc(-c2c3c(nn2-c2ccc(S(N)(=O)=O)cc2)-c2ccccc2C3)cc1 | 15.2 | 31.8 | 19.8 | 35.8 | 20.2 | 42.4 | – | – | 11.5 | 27.6 | 15.6 | 30 | 15.4 | 32.8 | 4.4 | 17 | 11.3 | 24.1 | 40.5 | 18.2
CC(=O)OC1=CC2=CC[C@H]3[C@@H]4CCC(=O)[C@@]4(C)CC(=O)[C@]3(S)[C@@]2(C)CC1 | – | 87 | – | > 100 | – | > 100 | – | – | – | 63 | – | 69.3 | – | > 100 | – | > 100 | – | 93.1 | 36 | –
